# Where two headings read alike, the source gives them in different places.
# What was measured:
# [1] = test system: S. aureus 2620 (methicillin resistant strain); assay: MIC; assay type: cell-based; details: Staphylococcus aureus; Table B; methicillin resistant strain; read-out: MIC
# Text: (§1) In vitro minimum inhibitory concentrations (MIC) of the AAD-609 complex and of Factors A, B, CC2 and D, using standard microtiter assay procedures, against a number of microorganisms are reported in Table A, which follows.
# S. aureus 674 = assay: In vitro MIC, standard microtiter assay; assay type: cell-based, Staphylococcus aureus; details: Staphylococcus aureus, 674; Table A; read-out: MIC
# Text: as §1
# [2] = test system: S. aureus 910 (methicillin resistant strain); assay: In vitro MIC, standard microtiter assay; assay type: cell-based, Staphylococcus aureus; details: Staphylococcus aureus; Table A; methicillin resistant strain; read-out: MIC
# Text: as §1
# S. aureus 675 = assay: In vitro MIC, standard microtiter assay; assay type: cell-based, Staphylococcus aureus; details: Staphylococcus aureus, 675; Table A; read-out: MIC
# Text: as §1
# S. aureus 209P = assay: In vitro MIC, standard microtiter assay; assay type: cell-based, Staphylococcus aureus; details: Staphylococcus aureus, 209P; Table A; read-out: MIC
# Text: as §1
# S. epidermidis 2683 = assay: In vitro MIC, standard microtiter assay; assay type: cell-based; details: Staphylococcus epidermidis, 2683; Table A; read-out: MIC
# Text: as §1
# [3] = test system: Streptococcus faecalis 657; assay: In vitro MIC, standard microtiter assay; assay type: cell-based; details: Enterococcus faecalis, 657; Table A; read-out: MIC
# Text: as §1
# Clostridium difficile = assay: In vitro MIC, standard microtiter assay; assay type: cell-based; details: Clostridioides difficile; Table A; read-out: MIC
# Text: as §1
# Escherichia coli 12140 = assay: In vitro MIC, standard microtiter assay; assay type: cell-based; details: Escherichia coli, 12140; Table A; read-out: MIC
# Text: as §1
# [4] = test system: Staphylococcus aureus HH127; assay: In vitro MIC, standard microtiter assay; assay type: cell-based
# Text: as §1
# S. epidermidis 2265 = assay: In vitro MIC, standard microtiter assay; assay type: cell-based; details: Staphylococcus epidermidis, 2265; Table A; read-out: MIC
# Text: as §1
# S. epidermidis 2479 = assay: In vitro MIC, standard microtiter assay; assay type: cell-based
# Text: as §1
# [5] = test system: Salmonella gallinarum BC-595; assay: In vitro MIC, standard microtiter assay; assay type: cell-based; details: Salmonella enterica, GALLINARUM; Table A; read-out: MIC
# Text: as §1
# [6] = test system: S. epidermidis 651 (methicillin resistant strain); assay: In vitro MIC, standard microtiter assay; assay type: cell-based; details: methicillin resistant strain
# Text: as §1
# S. faecalis 34358 = assay: In vitro MIC, standard microtiter assay; assay type: cell-based, Streptococcus faecalis
# Text: as §1
# [7] = 30:70 acetonitrile:water
# [8] = comparators, source not given; cited from earlier work
compound,measurement,setting,value
CNC1C(=O)NC2C(=O)NC(C(=O)NC3C(=O)NC4C(=O)NC(C(=O)NC(C(=O)O)c5cc(O)cc(OC6OC(CO)C(O)C(O)C6O)c5-c5cc4ccc5O)C(O)c4cc(Cl)c(c(Cl)c4)Oc4cc3cc(c4OC3OC(CO)C(O)C(O)C3NC(=O)CCCCCCCC(C)C)Oc3ccc(cc3Cl)C2O)c2cc(cc(O)c2Cl)Oc2cc1ccc2O (stereo not shown) [AAD-609 B],MIC,[1],2 µg/mL
same,MIC,S. aureus 674,0.8 µg/mL
same,MIC,[2],1.6 µg/mL
same,MIC,S. aureus 675,6.3 µg/mL
same,MIC,S. aureus 209P,0.8 µg/mL
same,MIC,S. epidermidis 2683,25 µg/mL
same,MIC,[3],0.2 µg/mL
same,MIC,Clostridium difficile,0.5 µg/mL
same,MIC,Escherichia coli 12140,> 100 µg/mL
same,MIC,"[4]; Staphylococcus aureus, HH127, Table A, read-out: MIC",1.6 µg/mL
same,MIC,[4]; Table B,1.6 µg/mL
same,MIC,S. epidermidis 2265,25 µg/mL
same,MIC,"S. epidermidis 2479; Staphylococcus epidermidis, 2479, Table A, read-out: MIC",12.5 µg/mL
same,MIC,S. epidermidis 2479; Table B,12.5 µg/mL
same,MIC,[5],> 100 µg/mL
same,MIC,"[6]; Staphylococcus epidermidis, Table A, read-out: MIC",50 µg/mL
same,MIC,[6]; Table B,50 µg/mL
same,MIC,"S. faecalis 34358; Enterococcus faecalis, 34358, Table A, read-out: MIC",0.2 µg/mL
same,MIC,S. faecalis 34358; Table B,0.2 µg/mL
same,pKa (A) carboxyl on aglycone,[7],3.5
same,pKa (C) amino group on aglycone,[7],7.1
ristocetin,Isoelectric point,[8],8.4
